Here are results for 25 compounds from patent publication US10183950B2, “Thienopyrimidine inhibitors of atypical protein kinase C” (Cancer Research Technology Limited, priority 2011, dated 2019).

The target in the assay is T1, full-length human PKCι (Homo sapiens, UniProt P41743).
T1 construct: Recombinant, full-length human PKCι expressed in Sf21 insect cells is also commercially available; purchased; host or cells: Sf21 insect cells
T1 sequence (P41743 1-596): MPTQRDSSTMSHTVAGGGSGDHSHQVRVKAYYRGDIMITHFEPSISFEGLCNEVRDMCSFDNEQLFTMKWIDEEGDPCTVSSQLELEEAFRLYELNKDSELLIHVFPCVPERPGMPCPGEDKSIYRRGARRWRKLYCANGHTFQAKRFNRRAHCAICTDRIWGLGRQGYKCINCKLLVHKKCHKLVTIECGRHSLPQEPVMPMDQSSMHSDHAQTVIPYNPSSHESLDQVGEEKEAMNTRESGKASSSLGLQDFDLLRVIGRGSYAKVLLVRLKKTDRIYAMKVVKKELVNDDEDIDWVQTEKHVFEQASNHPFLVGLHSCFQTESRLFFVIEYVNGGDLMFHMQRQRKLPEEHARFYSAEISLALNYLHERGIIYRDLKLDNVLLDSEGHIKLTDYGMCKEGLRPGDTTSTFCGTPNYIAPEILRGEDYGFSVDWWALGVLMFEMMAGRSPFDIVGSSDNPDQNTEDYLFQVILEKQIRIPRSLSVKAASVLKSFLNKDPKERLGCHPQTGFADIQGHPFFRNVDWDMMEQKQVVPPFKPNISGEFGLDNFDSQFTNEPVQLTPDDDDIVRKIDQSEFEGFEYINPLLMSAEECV
As to the kind of experiment: PKCι IC50 IMAP fluorescence polarisation assay, full-length enzyme. Format: biochemical. The conditions noted are these: full length PKCi at 15 μM ATP; read-out: IC50 in IMAP assay against full length PKCi (Activity). The procedure:
Assays are based on the ability of PKCι to phosphorylate a commercially available peptide substrate in vitro. […] Recombinant, full-length human PKCι expressed in Sf21 insect cells is also commercially available. Recombinant, kinase-domain human PKCι is expressed and purified in-house.
The procedure below explains how dose response curves for inhibitors of PKCι are obtained.
Compounds to be tested are dissolved in 100% DMSO. […] 1 μl is plated into 384 well black low-binding flat bottomed assay plates which are used immediately. Dilutions and additions of compound to assay plates are carried out using Matrix WellMate® and Matrix PlateMate® Plus liquid handling systems.
The final concentration of peptide substrate in the assay is 100 nM. […] Relevant controls are included, namely no compound and no enzyme. […] The reaction is allowed to incubate for 60 minutes at room temperature, before the reaction is stopped and developed by the addition of 20 μl IMAP™ development reagent (Molecular Devices). IMAP development reagent consists of 0.25% (v/v) IMAP progressive binding reagent, 17% (v/v) IMAP progressive binding buffer A and 3% (v/v) IMAP progressive binding buffer B. The plates are then incubated for 2 hours at room temperature before being read using an appropriate plate reader, for example a Molecular Devices HT Analyst or a BMG Pherastar.
On the technique in general: Fluorescence polarisation rises when a labelled molecule tumbles more slowly, as on binding a larger partner.
By IC50 is commonly meant the concentration needed to halve the response being measured. For the compound `N[C@H](CNc1nc(-c2ccncc2)nc2sc3c(c12)CCCC3)Cc1ccccc1F` [compound 51, (S)-3-(2-Fluoro-phenyl)-N*1*-(2-pyridin-4-yl-5,6,7,8-tetrahydro-benzo[4,5]thieno[2,3-d]pyrimidin-4-yl)-propane-1,2-diamine], the IC50 lay within 100 to 1000 nM. With `N[C@@H](CNc1nc(-c2ccncc2)nc2sc3c(c12)CCCC3)Cc1cccc2ccccc12` [compound 52, (R)-3-Naphthalen-1-yl-N*1*- (2-pyridin-4-yl-5,6,7,8-tetrahydro-benzo[4,5]thieno[2,3-d]pyrimidin-4-yl)-propane-1,2-diamine], the concentration for half-maximal inhibition (IC50) was in the range of 1000 to 10000 nM. Next, `Cc1ccccc1C[C@H](N)CNc1nc(-c2ccncc2)nc2sc3c(c12)CCCC3` [compound 53, (S)-N*1*-(2-Pyridin-4-yl-5,6,7,8-tetrahydro-benzo[4,5]thieno[2,3-d]pyrimidin-4-yl)-3-o-tolyl-propane-1,2-diamine]: 100 to 1000 nM; `COc1cccc(C[C@H](N)CNc2nc(-c3ccncc3)nc3sc4c(c23)CCCC4)c1` [compound 54, (S)-3-(3-Methoxy-phenyl)-N*1*-(2-pyridin-4-yl-5,6,7,8-tetrahydro-benzo[4,5]thieno[2,3-d]pyrimidin-4-yl)-propane-1,2-diamine]: 1000 to 10000 nM; `N[C@H](CNc1nc(-c2ccncc2)nc2sc3c(c12)CCCC3)Cc1ccc(O)cc1` [compound 55, 4-[(S)-2-Amino-3-(2-pyridin-4-yl-5,6,7,8-tetrahydro-benzo[4,5]thieno[2,3-d]pyrimidin-4-ylamino)-propyl]-phenol]: 1000 to 10000 nM. Next, `N[C@H](CNc1nc(-c2ccncc2)nc2sc3c(c12)CCCC3)Cc1ccncc1` [compound 56, (S)-3-Pyridin-4-yl-N*1*-(2-pyridin-4-yl-5,6,7,8-tetrahydro-benzo[4,5]thieno[2,3-d]pyrimidin-4-yl)-propane-1,2-diamine]: 1000 to 10000 nM.

Turning to `N[C@H](CNc1nc(-c2ccncc2)nc2sc3c(c12)CCCC3)Cc1cccnc1` [compound 57, (S)-3-Pyridin-3-yl-N*1*-(2-pyridin-4-yl-5,6,7,8-tetrahydro-benzo[4,5]thieno[2,3-d]pyrimidin-4-yl)-propane-1,2-diamine], the concentration for half-maximal inhibition (IC50) is 100 to 1000 nM. Next, `N[C@H](CNc1nc(-c2ccncc2)nc2sc3c(c12)CCCC3)Cc1ccccn1` [compound 58, (S)-3-Pyridin-2-yl-N*1*-(2-pyridin-4-yl-5,6,7,8-tetrahydro-benzo[4,5]thieno[2,3-d]pyrimidin-4-yl)-propane-1,2-diamine]: 1000 to 10000 nM; `N[C@H](CNc1nc(-c2ccncc2)nc2sc3c(c12)CCCC3)Cc1cscn1` [compound 59, (S)-N*1*-(2-Pyridin-4-yl-5,6,7,8-tetrahydro-benzo[4,5]thieno[2,3-d]pyrimidin-4-yl)-3-thiazol-4-yl-propane-1,2-diamine]: 100 to 1000 nM; `CC(C)(C)C[C@H](N)CNc1nc(-c2ccncc2)nc2sc3c(c12)CCCC3` [compound 60, (S)-4,4-Dimethyl-N*1*-(2-pyridin-4-yl-5,6,7,8-tetrahydro-benzo[4,5]thieno[2,3-d]pyrimidin-4-yl)-pentane-1,2-diamine]: 1000 to 10000 nM.

On to `N[C@@H](CNc1nc(-c2ccncc2)nc2sc3c(c12)CCCC3)Cc1csc2ccccc12` [compound 61, (R)-3-Benzo[b]thiophen-3-yl-N*1*-(2-pyridin-4-yl-5,6,7,8-tetrahydro-benzo[4,5]thieno[2,3-d]pyrimidin-4-yl)-propane-1,2-diamine], for which the concentration for half-maximal inhibition (IC50) was in the range of 1000 to 10000 nM. Next, `c1cc(-c2nc(NC[C@H]3CCCCN3)c3c4c(sc3n2)CCCC4)ccn1` [compound 62, (R)-1-Piperidin-2-ylmethyl-(2-pyridin-4-yl-5,6,7,8-tetrahydro-benzo[4,5]thieno[2,3-d]pyrimidin-4-yl)-amine]: 1000 to 10000 nM; `COc1ccccc1C[C@H](N)CNc1nc(-c2ccncc2)nc2sc3c(c12)CCSC3` [compound 64, (S)-3-(2-Methoxy-phenyl)-N*1*-(2-pyridin-4-yl-5,8-dihydro-6H-thio-pyrano[4′,3′:4,5]thieno[2,3-d]pyrimidin-4-yl)-propane-1,2-diamine]: 10000 to 40000 nM; `N[C@H](CNc1nc(-c2ccncc2)nc2sc3c(c12)CCCC3)Cc1ccccc1O` [compound 65, 2-[(S)-2-amino-3-(2-pyridin-4-yl-5,6,7,8-tetrahydro-benzo[4,5]thieno[2,3-d]pyrimidin-4-ylamino)-propyl]-phenol]: less than 100 nM. Next, `N[C@H](CNc1nc(-c2ccncc2)nc2sc3c(c12)CCCC3)Cc1cccc(O)c1` [compound 66, 3-[(S)-2-Amino-3-(2-pyridin-4-yl-5,6,7,8-tetrahydro-benzo[4,5]thieno[2,3-d]pyrimidin-4-ylamino)-propyl]-phenol]: 100 to 1000 nM. Next, `N[C@@H](CNc1nc(-c2ccncc2)nc2sc3c(c12)CCCCC3)Cc1ccccc1` [compound 70, (R)-3-Phenyl-N*1*-(2-pyridin-4-yl-6,7,8,9-tetrahydro-5H-10-thia-1,3-diaza-benzo[a]azulen-4-yl)-propane-1,2-diamine]: 1000 to 10000 nM; `N[C@H](CNc1nc(-c2ccncc2)nc2sc3c(c12)CCN(C(=O)c1ccccc1)C3)Cc1ccccc1` [compound 72, [4-((S)-2-Amino-3-phenyl-propylamino)-2-pyridin-4-yl-5,8-dihydro-6H-pyrido[4′,3′:4,5]thieno[2,3-d]pyrimidin-7-yl]-phenyl-methanone]: 1000 to 10000 nM; `N[C@@H](CNc1nc(-c2ccncc2)nc2sc3c(c12)CCN(C(=O)c1ccccc1)C3)Cc1ccccc1` [compound 73, [4-((R)-2-Amino-3-phenyl-propylamino)-2-pyridin-4-yl-5,8-dihydro-6H-pyrido[4′,3′:4,5]thieno[2,3-d]pyrimidin-7-yl]-phenyl-methanone]: 1000 to 10000 nM.

`CC1(C)CCc2c(sc3nc(-c4ccncc4)nc(NC[C@@H](N)Cc4ccccc4)c23)C1` [compound 77, (S)-N*1*-(7,7-Dimethyl-2-pyridin-4-yl-5,6,7,8-tetrahydro-benzo[4,5]thieno[2,3-d]pyrimidin-4-yl)-3-phenyl-propane-1,2-diamine]: the half-inhibitory concentration (IC50) was 10000 to 40000 nM. Next, `N[C@H](CNc1nc(-c2ccncc2)nc2sc3c(c12)CCC1(C3)OCCO1)Cc1ccccc1` [compound 78, (S)-3-Phenyl-N*1*-*-1,4-Dioxa-spiro[7.7]-(2-pyridin-4-yl-5,6,7,8-tetrahydro-benzo[4,5]thieno[2,3-d]pyrimidin-4-yl)-propane-1,2-diamine]: 1000 to 10000 nM; `N[C@@H](CNc1nc(-c2ccncc2)nc2sc3c(c12)CCC1(C3)OCCO1)Cc1ccccc1` [compound 79, (R)-3-Phenyl-N*1*-*-1,4-Dioxa-spiro[7.7]-(2-pyridin-4-yl-5,6,7,8-tetrahydro-benzo[4,5]thieno[2,3-d]pyrimidin-4-yl)-propane-1,2-diamine]: 100 to 1000 nM. Next, `N[C@H](CNc1nc(-c2ccncc2)nc2sc3c(c12)CCSC3)Cc1ccccc1` [compound 80, (S)-3-Phenyl-N*1*-(2-pyridin-4-yl-5,8-dihydro-6H-thiopyrano[4′,3′:4,5]thieno[2,3-d]pyrimidin-4-yl)-propane-1,2-diamine]: 100 to 1000 nM; `N[C@@H](CNc1nc(-c2ccncc2)nc2sc3c(c12)CCSC3)Cc1ccccc1` [compound 81, (R)-3-Phenyl-N*1*-(2-pyridin-4-yl-5,8-dihydro-6H-thiopyrano[4′,3′:4,5]thieno[2,3-d]pyrimidin-4-yl)-propane-1,2-diamine]: 1000 to 10000 nM; `N[C@H](CNc1nc(-c2ccncc2)nc2sc3c(c12)CCOC3)Cc1ccccc1` [compound 82, (S)-3-Phenyl-N*1*-(2-pyridin-4-yl-5,8-dihydro-6H-pyrano[4′,3′:4,5]thieno[2,3-d]pyrimidin-4-yl)-propane-1,2-diamine]: 1000 to 10000 nM. Next, `N[C@@H](CNc1nc(-c2ccncc2)nc2sc3c(c12)CCOC3)Cc1ccccc1` [compound 83, (R)-3-Phenyl-N*1*-(2-pyridin-4-yl-5,8-dihydro-6H-pyrano[4′,3′:4,5]thieno[2,3-d]pyrimidin-4-yl)-propane-1,2-diamine]: 10000 to 40000 nM.
